Data set [1] relates to apoptosis inducing factor (AIF) and BAX. As to the kind of experiment: Western immunoblotting of pro-apoptotic proteins in C5.18 chondrocytic cell line. The format is cell-based, rat. The conditions noted are these: 1000 nM bortezomib, 6hrs. The protocol:
Western immunoblotting to study protein expression was performed in the rat C5.18 chondrocytic cell line after treatment with 1000 nM CT (bortezomib) or 100 nM humanin analog HNG (S14G)/1000 nM CT (bortezomib (Btz)) for 6hrs. […] By adding humanin analog HNG (S14G), the up-regulation and activation of the two pro-apoptotic proteins were suppressed. […] As an internal control the house-keeping gene, GAPDH (35 kDa) was used. The experiment was repeated twice.

Data set [2] concerns growth plate chondrocytes. In words: TUNEL chondrocyte apoptosis in growth plate sections of C57B and NMRI mice. The conditions noted are these: bortezomib 1 mg/kg i.p.; day 13 (48 hrs post treatment); each strain, p<0.001 vs vehicle. It is filed as in vivo. The protocol:
(§1) Normal 5-week old male C57B and NMRI (B&K Universal, Sollentuna, Sweden) mice were housed one per cage in our animal care facility under a 12-h light, 12-h dark schedule with water ad libitum. After an adaptation period, each strain of mice were divided into two groups according to their body weight and were weight-matched into pairs to either receive 1 cycle intra peritoneal (i.p) injections of CT (bortezomib; Millennium Pharmaceuticals, USA, 1 mg/kg of body weight; 2 injections/week, 2 weeks treatment) or saline (vehicle). Body weight, food and general physical status was recorded daily during the first 20 days, and each vehicle-treated mouse was pair-fed to corresponding weight-matched CT (bortezomib)-treated mice. […] X-ray analyses where performed approximately every second week from start of treatment (represents time-point zero) to time of killing (day 56).
Cell death is a well known and desirable phenomenon in the anti-cancer therapy. However, side-effects of the treatment in other tissues and cells is not uncommon. To further investigate the underlying mechanism(s) to the observed growth impairment in vivo we studied apoptosis (by the TUNEL method). Apoptosis was quantified in paraffin embedded growth plate sections of CT (bortezomib) and vehicle treated C57B and NMRI mice sacrificed on day 13 of the study (48 hrs post treatment).

The next data set concerns C57B and NMRI mice. As to the kind of experiment: Bone length (X-ray) and body weight in normal C57B and NMRI mice. The conditions noted are these: for bone length (femur, X-ray): bortezomib 1 mg/kg i.p., 1 cycle. The format is in vivo. How it is done: as §1
FIG. 5 illustrates a schematic representation of the experimental design for the in vivo studies in C57B and NMRI mice. Both strains of mice were housed one per cage with water ad libitum. At start of treatment, mice were randomized into two groups based on their body weight and were weight-matched into pairs to either receive 1 cycle of intraperitoneal (i.p.) injected CT (bortezomib, 1 mg/kg) or vehicle at the indicated time-points; day 1, 4, 8 and 11. Each vehicle treated mouse was pair-fed to a corresponding weight-matched CT (bortezomib) treated mouse. Mice were killed (t) on day 13 (48 hrs post treatment) or on day 56 (45 days post treatment). X-ray analyses where performed approximately every second week from start of treatment (represents time-point zero) to time of killing (day 13 or 56). Bone lengths (mm) of femur were analyzed in vehicle- and CT (bortezomib) treated animals. Each group included 7-10 mice.
Body weight was measured in both strains of mice every day until day 20 after start of treatment, and once per week thereafter. […] The vertical hatched line in FIGS. 6A and B indicates the last injection on day 11. In light of the growth inhibiting effect on metatarsal bones in vitro and the association of many other cytotoxic drugs, the effect on bone growth was investigated in vivo. Normal 5-week old male C57B and NMRI mice were weigh-matched into pairs to either receive 1 cycle intra peritoneal (i.p) injections of CT (bortezomib) at a clinical relevant dose (1mg/kg of body weight; 2 injections/week, 2 weeks treatment) or saline (vehicle). One group were killed 48 hrs after last injection (day 13) to study the direct effects on bone growth and the growth plate chondrocytes. The second group of animals were followed another 45 days without any treatment and then killed (day 56, 45 days post treatment) to look at the long-term effect and if there was any catch-up growth. […]

The subject of data set [3] is chondrocytes of fetal rat metatarsal bones. In words: TUNEL apoptosis in growth plate sections of cultured rat metatarsal bones. The format is cell-based. The conditions noted are these: bortezomib 1-1000 nM, 12-day culture, p<0.001 vs control. How it is done: (§2) The three middle metatarsal bone rudiments were dissected out from the paws of 20-day-old embryos (E20) (De Luca, Barnes et al. 2001). After dissection, bones were transferred to 24-well plates, one bone per well and cultured in 0.5 ml phenol-red MEM medium supplemented with 0.2% endotoxin-free fraction BSA, […] β-glycerophosphate, 0.05 mg/ml ascorbic acid and 100 μg/ml penicillin/streptomycin at 37° C. under 5% CO2 in humidified atmosphere. Medium was changed every 2-3 days. Images were captured at days 0, 2, 5, 7, 9 and 12 of culture, using a Hamamatsu C4742-95 digital camera mounted on a Nikon SMZ-U microscope. The Image-Pro plus™ (Media Cybernetics, USA) software was used to measure longitudinal growth. Metatarsal bone growth is expressed as a percentage of the length at the day of dissection (regarded as day 0). Treatment with CT (bortezomib), dexamethasone and/or HNG (S14G) was started 2-4 hours after dissection. All isolated bones were pooled and then randomly divided into the different treatment groups (4 to 6 bones per group). Each experiment was repeated at least 3 times.
CT (bortezomib) is a cytotoxic drug known to cause critical alterations in cells/tissues and disturb the cellular homeostasis. […] Apoptosis was analyzed in whole growth plate sections of 12-day cultured rat metatarsal bones (perichondrium excluded) by applying the TUNEL technique to detect DNA fragmentation.

Data set [4] has as its system fetal rat metatarsal bones. As to the kind of experiment: Longitudinal growth of cultured fetal rat metatarsal bones. The format is cell-based. The protocol: as §2
The data shown in FIG. 2A indicates novel growth promoting/protective effects of humanin analog HNG (S14G) on longitudinal bone growth in cultured fetal rat metatarsal bones. […] Briefly, fetal rat metatarsal bones were pre-treated with different concentrations (mentioned in the figure) of HNG (S14G), 30 min prior to addition of Dexa. […] (n=4-6 bones/group)
CT (bortezomib) is a cytotoxic drug known to cause critical alterations in cells/tissues and disturb the cellular homeostasis. To test the effect of CT (bortezomib) on chondocytes and longitudinal bone growth, the established in vitro model of fetal rat metatarsal bones was used. These bones were collected as described in material and methods, cultured and treated with different concentrations of CT (bortezomib) under sterile conditions for up to 12 days. […] Apoptosis was analyzed in whole growth plate sections of 12-day cultured rat metatarsal bones (perichondrium excluded) by applying the TUNEL technique to detect DNA fragmentation.
In an attempt to block and prevent the negative effects on growth after CT (bortezomib)-treatment, recently discovered humanin analog HNG (S14G) was tested in vitro in fetal rat metatarsal bones.

Data set [5] deals with neuroblastoma (SK-N-BE(2)) tumor xenografts. In words: Doubling time of tumors in neuroblastoma xenografts. It is filed as in vivo, human. The conditions noted are these: bortezomib 0.8 mg/kg i.v. days 1, 4, 8, 11; p<0.05 vs vehicle.
The next data set deals with growth plate. From the text: The proteasome inhibitors (PIs), including bortezomib (Velcade™, PS-341), belong to another novel and promising group of CT that has past phase I clinical trials (Blaney, Bernstein et al. 2004) and are now under phase II clinical trials in pediatric cancers. However, secondary effects on normal bystander tissues of primary life saving modalities are so far unknown.

For data set [6], the system named is human growth plate cartilage. It is filed as cell-based. The conditions noted are these: both, 24 h, 1000 nM. The protocol:
Biopsies from the proximal tibia and distal femur growth plates were collected in 5 pubertal children (3 boys and 2 girls) undergoing epiphyseal surgery for different medical conditions (4 patients with constitutional tall stature and 1 patient with leg length discrepancy). Biopsies were cut into thin slices under microscope and cultured for 24 hrs in the presence of 1000 nM CT (bortezomib). After fixation and sectioning, growth plates were analyzed using the TUNEL assay to determine the levels of chondrocyte apoptosis. […] CT (bortezomib) caused a significant increase in apoptosis (22.2±4.4% TUNEL positive cells vs. 6.3±1.8% in control; **p≦0.01, n=5 patients), which was mainly observed in stem-like and early proliferative chondrocytes. Our confirmation that human growth plate cartilage is also highly sensitive to bortezomib-induced cytotoxicity is of considerable clinical importance.

With `CC(C)C[C@H](NC(=O)[C@H](Cc1ccccc1)NC(=O)c1cnccn1)B(O)O` [CT (bortezomib), bortezomib], the “expression of pro-apoptotic proteins AIF and BAX” value in data set [1] is “induce up-regulation and activation”. In addition, the “chondrocyte apoptosis (TUNEL)” value in data set [2] was “significant induction of chondrocyte apoptosis”; in data set [3], “significant dose-dependent increase in chondrocyte apoptosis”. The body weight entry in the data set on C57B and NMRI mice (C57BL mice, bortezomib 1 mg/kg i.p. days 1, 4, 8, 11, vs vehicle) is reported as “no difference in body weight”; in the data set on C57B and NMRI mice (NMRI mice, bortezomib 1 mg/kg i.p. days 1, 4, 8, 11, day 36 until day 56, vs vehicle), “significant difference in body weight”. For the same molecule, the “bone length (femur, X-ray)” value with C57B and NMRI mice (after 45 day follow-up (day 56), p<0.001) is recorded as “still significantly shorter”; in the data set with C57B and NMRI mice (day 13, both strains, p<0.001 vs vehicle) it was “significantly shorter”. Moreover, the longitudinal bone growth result is “Significant growth suppression” in data set [4] (bortezomib 50 nM or higher, from day 2 throughout 12 days, p<0.001 vs control); “permanent growth arrest” in data set [4] (bortezomib 1000 nM for only 24 hrs, then control medium up to 12 days); “completley abolished growth” in data set [4] (bortezomib, all concentrations tested (25-100 nM)). Further, the tumor doubling time entry in data set [5] was “significant reduction in tumor doubling time”. In addition, the “effect on growth plate and growth” value with growth plate was “permanent growth retardation and chondrocyte cell death”. The molecule further displayed a TUNEL positive cells in data set [6] of 22.2±4.4%.
